Assay results from patent US8969409B2, “Treatment for pulmonary hypertension” (United Therapeutics Corporation, priority 2010, dated 2015).

Assays:
[1] = cited from earlier work
[2] = low pH (stomach); cited from earlier work
[3] = system: pulmonary artery pressure (PAP); test: Rat model of acute PAH: U-44069 infusion, pulmonary artery pressure by telemetry; type: in vivo
Method: This study utilized administration of a thromboxane agonist to elevate pulmonary artery pressure (PAP) in the rat as a model for PAH. Treprostinil was administered to the rats by oral gavage (UT-15C), nose-only inhalation (Tyvaso) or in a combined oral+inhalation regimen, followed by PAP assessment.
Experimental Design: For this study, a rat model of acute PAH was developed with the ability to measure real-time PAP by telemetry from a catheter surgically implanted into the rat pulmonary artery. To induce PAH in this model, a 15 minute intravenous (IV) infusion of the thromboxane agoinst, U44069, was administered, and PAP was monitored and recorded every 5 seconds.
To establish this model, initial testing and optimization of the concentration and infusion rate of the U-44069 was performed to best achieve elevated PAP. […] Following the preliminary individual oral and inhaled treprostinil range-finding studies, a combination administration of oral+inhaled treprostinil was performed.
The animals received U-44069 (0.5 mg/mL) at a dose rate of 10 mL/kg/hr for 15 minutes for a total dose of 1.25 mg/kg/dose. The animals received 3 to 4 IV doses/session, as detailed below.
• 1. Animals were treated as follows: • 2. IV for 15 minutes • 3. Oral gavage, as soon as practicable following the 15-minute infusion • 4. 1 hour following gavage, IV for 15 minutes. • 5. 2 hours following gavage, IV for 15 minutes Dose 2, inhalation:
Animals were treated as follows: • 1. IV for 15 minutes • 2. Inhalation exposure, as soon as practicable following the 15-minute infusion • 3. Approximately 5 minutes after inhalation completion, IV for 15 minutes. • 4. 1 hour later, IV for 15 minutes Dose 3, inhalation and oral gavage:
Animals were treated as follows: • 1. IV for 15 minutes • 2. Oral gavage, as soon as practicable following the 15-minute infusion • 3. Inhalation exposure, as soon as practicable following oral gavage. All animals were exposed to the low dose (5.26 μg/kg). • 4. Approximately 5 minutes after inhalation completion, IV for 15 minutes. • 5. 1 hour later, IV for 15 minutes • 6. 2 hours after oral gavage, IV for 15 minutes for 2 animals (1 low and 1 high oral dose) Inhaled, Oral and Combination Treprostinil Dosing Results: […]

Question: Which results are given for `CCCCC[C@H](O)/C=C/[C@@H]1[C@H]2C/C(=C/CCCC(=O)O)O[C@H]2C[C@H]1O` [prostacyclin]?
Answer: half-life in the blood [1]: 3 to 5 min; stability at low pH [2]: inactivated by a low pH

Question: Which “PAP reduction when oral treprostinil added to low dose inhaled treprostinil” value ([3]; combination dosing regimen, in magnitude or duration) does the source give for `CCCCC[C@H](O)CC[C@@H]1[C@H]2Cc3cccc(OCC(=O)O)c3C[C@H]2C[C@H]1O` [treprostinil] here?
Answer: additional PAP reduction was observed

Question: And the “PAP following inhalation exposure (immediately post dosing)” value ([3]; inhalation 5.26, 10.6 or 34.1 μg/kg/day, all dose levels, during U-44069 infusion)?
Answer: approximately 120 % the baseline

Question: And the “PAP at 1 hr post dosing compared to IPD values” ([3]; inhalation 5.26, 10.6 or 34.1 μg/kg/day, additional U-44069 injection 1 hour after inhalation)?
Answer: significantly increased

Question: What about the “PAP reduction at IPD, combination dosing Group 3” value ([3]; low dose inhaled (5.26 μg/kg/day) + high oral gavage, versus individual high dose inhalation (34.1 μg/kg/day), sustained to 1 hr PD) of the same compound?
Answer: equivalent (#3001) or greater (#3002)

Question: What about the “PAP reduction, combination dosing Group 1” value ([3]; low dose inhaled (5.26 μg/kg/day) + low (5 mg/kg/dose) oral gavage, versus low dose inhaled alone) of the same compound?
Answer: sustained effect to 1 hr

Question: What about the “PAP decrease at IPD, combination dosing Group 2” value ([3]; low dose inhaled (5.26 μg/kg/day) + mid (10 mg/kg/dose) oral gavage, versus individual mid-dose inhalation (10.6 μg/kg/day)) of the same compound?
Answer: equivalent or greater

Question: What about the “PAP after oral gavage” value ([3]; oral gavage 5, 10 or 15 mg/kg/dose, 1 hr PD and 2 hr PD) of the same compound?
Answer: decreases in PAP were generally observed in a dose-related fashion

Question: And the “PAP during the PAH condition, any route of administration” value ([3]; oral gavage, nose-only inhalation or combined)?
Answer: generally reduce PAP

Question: With `CCCCC[C@H](O)/C=C/[C@H]1[C@@H]2CO[C@@H](C2)[C@@H]1C/C=C\CCCC(=O)O` [U-44069] as the compound, how does the “maximum PAP during U-44069 infusion relative to baseline” value ([3]; IV U-44069 0.5 mg/mL, 10 mL/kg/hr for 15 minutes, all occasions except animal 2001) read?
Answer: at least 150 % of the baseline
